Measurements reported in ChEMBL document CHEMBL5154856, “Targeting the tumor microenvironment by an enzyme-responsive prodrug of tubulin destabilizer for triple-negative breast cancer therapy with high safety” (Eur J Med Chem, 2022).
pIC50: −log10 of the molar value. The source made the active and inactive calls. No cut-off for these calls is given here.

Assays:
[1] = test system: MDA-MB-231; assay: Antiproliferative activity against human MDA-MB-231 cells assessed as inhibition of cell growth incubated for 48 hrs by MTT assay; assay type: functional, cell-based; conditions: MDA-MB-231, 48 h
[2] = test system: SK-OV-3; assay: cells; conditions: Homo sapiens, SK-OV-3, 48 h
Description: Antiproliferative activity against human SK-OV-3 cells assessed as inhibition of cell growth incubated for 48 hrs by MTT assay

[3] = test system: MCF7; assay: Antiproliferative activity against human MCF7 cells assessed as inhibition of cell growth incubated for 48 hrs by MTT assay; assay type: functional, cell-based; conditions: MCF7, 48 h
[4] = test system: HeLa; assay: Antiproliferative activity against human HeLa cells assessed as inhibition of cell growth incubated for 48 hrs by MTT assay; assay type: functional, cell-based
[5] = Toxicity in nude mouse assessed as effect on white blood cell count at 3.75 mg/kg, iv administered qd for 3 days (reference value: 0.02 10^9/L); assay type: organism-based; conditions: in vivo, 72 h, time 3 day
[6] = Toxicity in nude mouse xenografted with human MDA-MB-231 cells assessed as pathological changes in spleen at 3.75 mg/kg, iv administered every 2 days for 14 days by H and E staining based assay; assay type: organism-based; conditions: in vivo, 336 h, time 14 day
[7] = Toxicity in nude mouse assessed as effect on mean corpuscular hemoglobin level at 3.75 mg/kg, iv administered qd for 3 days (reference value: 22.3 pg); assay type: organism-based; conditions: in vivo, 72 h, time 3 day
[8] = Toxicity in nude mouse assessed as animal death at 5 mg/kg, iv administered 3 consecutive dosages; assay type: organism-based; conditions: in vivo
[9] = Toxicity in nude mouse assessed as effect on mean corpuscular hemoglobin concentration at 3.75 mg/kg, iv administered qd for 3 days (reference value: 473 g/L); assay type: organism-based; conditions: in vivo, 72 h, time 3 day
[10] = Toxicity in nude mouse assessed as effect on eosinophil level at 3.75 mg/kg, iv administered qd for 3 days (reference value: 6 %); assay type: organism-based; conditions: in vivo, 72 h, time 3 day
[11] = Acute toxicity in BALB/c mouse assessed as animal survival at 70 mg/kg, iv administered as single dose measured after 14 days; assay type: organism-based; conditions: in vivo, time 14 day
[12] = Toxicity in nude mouse assessed as effect on platelet distribution width at 3.75 mg/kg, iv administered qd for 3 days (reference value: 20.2); assay type: organism-based; conditions: in vivo, 72 h, time 3 day
[13] = Toxicity in nude mouse assessed as effect on albumin level in serum at 3.75 mg/kg, iv administered qd for 3 days (reference value: 31.2 g/L); assay type: organism-based; conditions: in vivo, 72 h, time 3 day
[14] = Toxicity in nude mouse assessed as effect on gamma-glutamyl transpeptidase level in serum at 3.75 mg/kg, iv administered qd for 3 days (Rvb < 2 U/L); assay type: organism-based; conditions: in vivo, 72 h, time 3 day
[15] = Toxicity in nude mouse assessed as effect on globulin level in serum at 3.75 mg/kg, iv administered qd for 3 days (reference value: 16.1 g/L); assay type: organism-based; conditions: in vivo, 72 h, time 3 day
[16] = Toxicity in nude mouse xenografted with human MDA-MB-231 cells assessed as pathological changes in liver at 3.75 mg/kg, iv administered every 2 days for 14 days by H and E staining based assay; assay type: organism-based; conditions: in vivo, 336 h, time 14 day
[17] = Toxicity in nude mouse assessed as effect on monocytes level at 3.75 mg/kg, iv administered qd for 3 days (reference value: 37.10 %); assay type: organism-based; conditions: in vivo, 72 h, time 3 day
[18] = Acute toxicity in BALB/c mouse assessed as animal survival at 12.5 mg/kg, iv administered as single dose measured after 14 days; assay type: organism-based; conditions: in vivo, time 14 day
[19] = Toxicity in nude mouse assessed as effect on basophil level at 3.75 mg/kg, iv administered qd for 3 days (reference value: 11.70 %); assay type: organism-based; conditions: in vivo, 72 h, time 3 day
[20] = Toxicity in nude mouse assessed as effect on neutrophil level at 3.75 mg/kg, iv administered qd for 3 days (reference value: 7.40 %); assay type: organism-based; conditions: in vivo, 72 h, time 3 day
[21] = test system: MDA-MB-231; assay: Antitumor activity against mouse xenografted with human MDA-MB-231 cells assessed as increase in tumor necrosis area at 3.75 mg/kg, iv administered every 2 days for 14 days by H and E staining based assay; assay type: functional, organism-based; conditions: time 14.0 day
[22] = Acute toxicity in BALB/c mouse assessed as animal survival at 50 mg/kg, iv administered as single dose measured after 14 days; assay type: organism-based; conditions: in vivo, time 14 day
[23] = Acute toxicity in BALB/c mouse assessed as lethal dose administered intravenously as single dose and measured after 14 days; conditions: in vivo, route iv, time 14 day
[24] = Acute toxicity in BALB/c mouse assessed as animal survival at 100 mg/kg, iv administered as single dose measured after 14 days; assay type: organism-based; conditions: in vivo, time 14 day
[25] = Toxicity in nude mouse assessed as effect on alkaline phosphatase level in serum at 3.75 mg/kg, iv administered qd for 3 days (reference value: 66 U/L); assay type: organism-based; conditions: in vivo, 72 h, time 3 day
[26] = Toxicity in nude mouse assessed as effect on aspartate aminotransferase level in serum at 3.75 mg/kg, iv administered qd for 3 days (reference value: 424 U/L); assay type: organism-based; conditions: in vivo, 72 h, time 3 day
[27] = Cardiotoxicity in nude mouse assessed as prolonged QT intervals at 5 mg/kg, iv administered once daily for 3 days by ECG analysis; assay type: toxicity, organism-based; conditions: in vivo, 72 h, time 3 day
[28] = Toxicity in nude mouse xenografted with human MDA-MB-231 cells assessed as pathological changes in kidney at 3.75 mg/kg, iv administered every 2 days for 14 days by H and E staining based assay; assay type: organism-based; conditions: in vivo, 336 h, time 14 day
[29] = Toxicity in nude mouse assessed as effect on platelet count at 3.75 mg/kg, iv administered qd for 3 days (reference value: 21 10^9/L); assay type: organism-based; conditions: in vivo, 72 h, time 3 day
[30] = Toxicity in nude mouse assessed as effect on lymphocyte level at 3.75 mg/kg, iv administered qd for 3 days (reference value: 60.90 %); assay type: organism-based; conditions: in vivo, 72 h, time 3 day
[31] = Acute toxicity in BALB/c mouse assessed as animal survival at 25 mg/kg, iv administered as single dose measured after 14 days; assay type: organism-based; conditions: in vivo, time 14 day
[32] = Cardiotoxicity in nude mouse assessed as abnormal spikes at 5 mg/kg, iv administered once daily for 3 days by ECG analysis; assay type: toxicity, organism-based; conditions: in vivo, 72 h, time 3 day
[33] = Toxicity in nude mouse assessed as effect on alanine aminotransferase level in serum at 3.75 mg/kg, iv administered qd for 3 days (reference value: 308 U/L); assay type: organism-based; conditions: in vivo, 72 h, time 3 day
[34] = Toxicity in nude mouse assessed as effect on total bilirubin level in serum at 3.75 mg/kg, iv administered qd for 3 days (reference value: 3.3 micromol/L); assay type: organism-based; conditions: in vivo, 72 h, time 3 day
[35] = Toxicity in nude mouse assessed as effect on total protein level in serum at 3.75 mg/kg, iv administered qd for 3 days (reference value: 47.3 g/L); assay type: organism-based; conditions: in vivo, 72 h, time 3 day
[36] = Chemical stability of compound at pH 7.4 in bovine serum at 1 mg incubated for 48 hrs by HPLC analysis; assay type: ADME, cell-free; conditions: cattle, pH 7.4, 48 h
[37] = Chemical stability of compound at pH 7.4 in PBS buffer at 1 mg incubated for 48 hrs by HPLC analysis; assay type: physicochemical; conditions: pH 7.4, 48 h
[38] = Stability of compound in phosphate buffer at pH 7.4 assessed as Escherichia coli beta-glucuronidase mediated compound cleavage at 1.2 mg measured after 2 hrs by HPLC analysis; assay type: ADME; conditions: pH 7.4, 2 h
[39] = test system: HeLa; assay: Antiproliferative activity against human HeLa cells assessed as inhibition of cell growth incubated for 48 hrs in presence of beta-glucuronidase by MTT assay; assay type: functional, cell-based
[40] = test system: SK-OV-3; assay: Antiproliferative activity against human SK-OV-3 cells assessed as inhibition of cell growth incubated for 48 hrs in absence of beta-glucuronidase by MTT assay; assay type: functional, cell-based; conditions: SK-OV-3, 48 h
[41] = test system: HeLa; assay: Antiproliferative activity against human HeLa cells assessed as inhibition of cell growth incubated for 48 hrs in absence of beta-glucuronidase by MTT assay; assay type: functional, cell-based
[42] = test system: MDA-MB-231; assay: Antiproliferative activity against human MDA-MB-231 cells assessed as inhibition of cell growth incubated for 48 hrs in presence of beta-glucuronidase by MTT assay; assay type: functional, cell-based; conditions: MDA-MB-231, 48 h
[43] = test system: MCF7; assay: Antiproliferative activity against human MCF7 cells assessed as inhibition of cell growth incubated for 48 hrs in absence of beta-glucuronidase by MTT assay; assay type: functional, cell-based; conditions: MCF7, 48 h
[44] = Aqueous solubility of compound in PBS at pH 7.4 at 1 mg incubated for 10 mins by HPLC analysis; assay type: physicochemical
[45] = Metabolic stability in rat liver microsomes assessed as half life at 10 mM measured up to 60 mins in presence of NADPH by LC-MS/MS analysis; assay type: ADME, Microsome
[46] = Stability of compound in phosphate buffer at pH 7.4 assessed as Escherichia coli beta-glucuronidase mediated compound cleavage at 1.2 mg measured after 10 mins by HPLC analysis; assay type: ADME; conditions: pH 7.4, 10 min
[47] = test system: MDA-MB-231; assay: Antiproliferative activity against human MDA-MB-231 cells assessed as inhibition of cell growth incubated for 48 hrs in absence of beta-glucuronidase by MTT assay; assay type: functional, cell-based; conditions: MDA-MB-231, 48 h
[48] = test system: MCF7; assay: Antiproliferative activity against human MCF7 cells assessed as inhibition of cell growth incubated for 48 hrs in presence of beta-glucuronidase by MTT assay; assay type: functional, cell-based; conditions: MCF7, 48 h
[49] = Metabolic stability in rat liver microsomes assessed as parent compound remaining at 10 mM measured up to 60 mins in presence of NADPH by LC-MS/MS analysis; assay type: ADME, Microsome; conditions: read-out: Stability
[50] = Metabolic stability in rat liver microsomes assessed as intrinsic clearance in liver at 10 mM measured up to 60 mins in presence of NADPH by LC-MS/MS analysis; assay type: ADME, Microsome; conditions: read-out: CLH
[51] = test system: SK-OV-3; assay: Antiproliferative activity against human SK-OV-3 cells assessed as inhibition of cell growth incubated for 48 hrs in presence of beta-glucuronidase by MTT assay; assay type: functional, cell-based; conditions: SK-OV-3, 48 h
[52] = Metabolic stability in rat liver microsomes assessed as intrinsic clearance in microsomes at 10 mM measured up to 60 mins in presence of NADPH by LC-MS/MS analysis; assay type: ADME, Microsome; conditions: read-out: CLH

COc1ccc([C@H]2[C@H](CF)C(=O)N2c2cc(OC)c(OC)c(OC)c2)cc1O
pIC50 [1]: 8.96
pIC50 [2]: 8.42
pIC50 [3]: 7.90
pIC50 [4]: 8.17

COc1ccc([C@H]2[C@H](CO)C(=O)N2c2cc(OC)c(OC)c(OC)c2)cc1O (racemic)
pIC50 [1]: 7.92
Activity [5]: 0.05 10^9/L
Activity [6]: Non-Toxic
Activity [7]: 23.5 pg
Activity [8]: Toxic
Activity [9]: 488 g/L
Activity [10]: 18.2%
survival at 336 h [11]: 37.5%
Activity [12]: 18.5
Activity [13]: 33.1 g/L
Activity [14]: < 2 U/L
Activity [15]: 15.7 g/L
Activity [16]: Non-Toxic
Activity [17]: 7.7%
survival at 336 h [18]: 100%
Activity [19]: 4.7%
pIC50 [3]: 7.83
Activity [20]: 7.4%
Activity [21]: Active
survival at 336 h [22]: 87.5%
LD50 at 336 h [23]: 65 mg/kg
survival at 336 h [24]: 0%
pIC50 [4]: 8.23
Activity [25]: 142 U/L
Activity [26]: 503 U/L
Activity [27]: Toxic
Activity [28]: Non-Toxic
Activity [29]: 99 10^9/L
Activity [30]: 66.7%
survival at 336 h [31]: 100%
Activity [32]: Toxic
Activity [33]: 196 U/L
Activity [34]: 6.3 µmol/L
Activity [35]: 48.8 g/L

COc1cc(C(=O)c2c(N)oc3c(OCc4ccc(O[C@@H]5O[C@H](C(=O)O)[C@@H](O)[C@H](O)[C@H]5O)cc4)c(OC)ccc23)cc(OC)c1OC
Stability [36]: Stable
Stability [37]: Stable
Stability [38]: Unstable

COc1ccc([C@H]2[C@H](CO)C(=O)N2c2cc(OC)c(OC)c(OC)c2)cc1OCc1ccc(O[C@@H]2O[C@H](C(=O)O)[C@@H](O)[C@H](O)[C@H]2O)c([N+](=O)[O-])c1
Stability [36]: Stable
Stability [37]: Stable
Stability [38]: Unstable

COc1ccc([C@H]2[C@H](CF)C(=O)N2c2cc(OC)c(OC)c(OC)c2)cc1OCc1ccc(O[C@@H]2O[C@H](C(=O)O)[C@@H](O)[C@H](O)[C@H]2O)cc1
pIC50 [39]: 7.84
pIC50 [40]: < 4.30
pIC50 [41]: < 4.30
Stability [36]: Stable
Stability [37]: Stable
pIC50 [42]: 8.46
pIC50 [43]: < 4.30
solubility at 10 min [44]: > 40 mg/mL
half-life [45]: > 2.42 h
Stability [46]: Unstable
pIC50 [47]: < 4.30
pIC50 [48]: 7.81
remaining at 1 h [49]: 84.6%
CLint scaled [50]: < 38 mL/min/kg
pIC50 [51]: 7.65
microsomal CLint [52]: < 9.6 µL/min/mg
